Laboratory results as given in patent US20260294946A1, “METHOD TO REDUCE FEED CONVERSION RATIO IN A FARMED ANIMAL” (Inbiose N.V., priority 2023, published 2026).

Key:
[1] = Trial in calves: live weight, average daily gain, feed intake, feed conversion ratio (12 weeks); assay type: in vivo, Holstein Friesian calves
Source text: (§1) Holstein Friesian calves (2- to 3-week-old, 95% male) were transported from different farms to the experimental facility of Denkavit (Voorthuizen, The Netherlands) where the animals were reared. The calves were randomly and gender-equally divided in four groups based on experimental calf milk replacer (CMR): group A (placebo—standard CMR powder of the farm), group B (standard CMR powder supplemented with 0.005% dry wt. 2′FL), group C (standard CMR powder supplemented with 0.025% dry wt. 3′SL and 0.015% w/w 6′SL) and group D (standard CMR powder supplemented with 0.005% dry wt. 2′FL, 0.025% dry wt. 3′SL and 0.015% dry wt. 6′SL). The calf milk replacer was administered as a liquid to the calves (water was added to the CMR powder to obtain 150 grams CMR powder per liter liquid CMR). Each group involved 100 calves, assigned into four rows (25 calves per row) of two compartment blocks. Each row contained five pens, where four to six calves were living in one pen.
Starting from the day of arrival, calves received standard calf milk replacer (CMR) during a period of 9 weeks. Group A only received the CMR, while the CMR supplied to groups B, C and D was supplemented with MMOs as outlined in the section titled “Animals.” Calf starter (concentrates) and straw were introduced gradually from day 6 till the end of the experiment (12 weeks) while calves had access to corn silage at week 11 and 12. Feeds were provided ad libitum to calves twice a day in the morning and evening and were daily recorded based on rows (concentrates, straw, corn silage) or groups (CMR) consumption.
Calves were followed up by the farm staff since arrival until 12 weeks. Fecal consistency in scale 1-4 (Larson et al., 1977, J. Dairy Science, 60(6): p. 989-991) was recorded daily for the first ten days since arrival. Number of mortalities and signs of adverse effects were registered daily. The animals were treated prophylactically or metaphylactically (herd treatment) with 1 g oxytetracycline 100% (at day 4), 0.5 g Doxylin 50% WSP and 0.8 g Bromhexine 2% (at day 13), and 3.1 ml Tilmicosol 250 mg/ml (at day 24) to prevent and/or treat acute lung inflammation. Individual treatments were followed by remarks of the farm staff and diagnostics of farm veterinary practitioners. Disease incidences and medicinal usage based on individual treatments were recorded to compare between treatment groups. The incidence of diarrhea was 0% in all groups at the start of the study, and 1% (%; group A), 0% (group B), 1% (group C) and 2% (group D) after 12 weeks. Live weight of the animals was monitored at arrival (d1), two weeks (W2), six weeks (W6), ten weeks (W10) and 12 weeks (W12) since arrival. Feed conversion ratio (FCR) of each period was computed based on the input of daily weight gain and daily feed intake.
Prior to analysis, the data of live weight and FCR were checked for outliers. A data point was considered an outlier if it could reasonably be expected that observed trail results were due to other factors than the treatment, e.g., due to sickness. An ANCOVA model as below was used to analyze the live weight data (R version 4.1.2.).
Differences among means with P<0.05 were accepted as significant. Differences among means with 0.05<P<0.10 were accepted as tendency. Multiple comparisons were done with Tukey.
Other performance data were analyzed using a mixed linear model using treatments as fixed and Row as random term using 1me in the nlme package.

[2] = system: Eubacterium rectale; experiment: Fecal microbiota of calves, shotgun metagenomics; assay type: in vivo; settings: T1 (W 5), versus placebo calves, score = −log 10(pvalue)*sign(coef)
Procedure: (§2) Stools were collected directly from recta of six calves in one selected pen upon rectal inducing at day 29 (W5) and day 57 (W9). The fecal samples (approximately 1 g) were immediately snap frozen using isopropanol-dried ice bath for 1 minute before they were transferred onto dried ice for transportation to a long-term storage at −80° C.
(§3) Total fecal DNA was extracted from 200 mg feces while total upper respiratory tract microbial DNA were extracted from 1 ml DNA shield reagent containing the nasal pharyngeal swab. ZymoBIOMICS™ DNA miniprep kit (Zymo Research) in combination with a FASTPREP® 24 device was used to extract and purify the microbial DNA as instructed by the manufacturer. Purified total DNA were eluted in 100 μl and were quickly checked for the concentration and quality using Nanodrop (Implen NANOPHOTOMETER®) before storage at −20° C.
(§4) Total DNA were submitted to Eurofins (GATC, Germany) to perform metagenomics using their INVIEW metagenome platform. Briefly, total DNA were first fragmented, then ligated with adapter for library preparation. The sequencing was done using Illumina paired end sequencing technology (2×150 bp), guaranteed for 20 million read pairs (40 million reads). Reads were quality-checked with fastqc (bioinformatics.babraham.ac. uk/projects/fastqc/) and trimmed with Trimmomatic (Bolger et al., 2014, Bioinformatics, 30(15): p. 2114-2120; usadellab.org/cms/?page=trimmomatic). Bovine reads were removed by mapping to the cow reference database Bos_taurus_UMD_3.1.1 using BMTagger (bioconda.github.io/recipes/bmtagger/README.html). Profiling of the taxonomic composition and the functional potential of microbial communities was done using Metaphlan (Beghini et al., 2021, Elife 10: e65088; /huttenhower.sph.harvard.edu/humann/).
(§5) Microbiome data was normalized in cpm (counts per million).
(§6) The treatment effect of MMOs in the microbiome data was evaluated per timepoint with Maaslin2 (Mallick et al., 2021, PLoS Computational Biology 17(11): e1009442) using AST transformation and adding compartment as fixed effect. For visualization in the tables a score was calculated equal to −log 10(pvalue)*sign(coef). Spearman correlation was used to evaluate the relation between microbiome and FCR using the cor.test function in the stats package in R.

[3] = system: Ruminococcus bromii; experiment: Fecal microbiota of calves, shotgun metagenomics; assay type: in vivo; settings: T2 (W 9), versus placebo calves, score = −log 10(pvalue)*sign(coef)
Procedure: as §2, §3, §4, §5, §6

[4] = system: Bacteroides pectinophilus; experiment: Fecal microbiota of calves, shotgun metagenomics; assay type: in vivo; settings: T2 (W 9), versus placebo calves, score = −log 10(pvalue)*sign(coef)
Procedure: as §2, §3, §4, §5, §6

[5] = system: Prevotella copri; experiment: Fecal microbiota of calves, shotgun metagenomics; assay type: in vivo; settings: T1 (W 5), versus placebo calves, score = −log 10(pvalue)*sign(coef)
Procedure: as §2, §3, §4, §5, §6

[6] = system: Bacteroides coprophilus; experiment: Fecal microbiota of calves, shotgun metagenomics; assay type: in vivo; settings: T2 (W 9), versus placebo calves, score = −log 10(pvalue)*sign(coef)
Procedure: as §2, §3, §4, §5, §6

[7] = system: Atopobium deltae; experiment: Fecal microbiota of calves, shotgun metagenomics; assay type: in vivo; settings: T1 (W 5), versus placebo calves, score = −log 10(pvalue)*sign(coef)
Procedure: as §2, §3, §4, §5, §6

[8] = Trial in calves: health and safety observation (adverse effects, mortality, diarrhea); assay type: in vivo, Holstein Friesian calves; settings: after 12 weeks
Source text: as §1, with “Each row contained five pens, where four to six calves were living in one pen.” left out
Calves were followed up by the farm staff since arrival until 12 weeks. Fecal consistency in scale 1-4 (Larson et al., 1977, J. Dairy Science, 60(6): p. 989-991) was recorded daily for the first ten days since arrival. […] Disease incidences and medicinal usage based on individual treatments were recorded to compare between treatment groups. […] Live weight of the animals was monitored at arrival (d1), two weeks (W2), six weeks (W6), ten weeks (W10) and 12 weeks (W12) since arrival. […]

Q: With 2′-fucosyllactose [2′FL] as the substance, how does the Live weight ([1]; W 0 (arrival), mean ± SD) read?
A: 45.6 ± 2.8 kg

Q: And the “Feed conversion ratio (FCR)” value ([1]; W 0-W 2)?
A: 1.34

Q: And the Average daily gain ([1]; W 0-W 2, mean ± SD)?
A: 600.1 ± 155.0 g/day

Q: And the “Feed conversion ratio (FCR)” value ([1]; W 0-W 6)?
A: 1.53

Q: And the “Feed conversion ratio (FCR)” value ([1]; W 0-W 10)?
A: 2.01

Q: What about the “Feed conversion ratio (FCR)” value ([1]; W 0-W 12) of the same substance?
A: 2.28

Q: And the Average daily gain ([1]; W 0-W 12, mean ± SD)?
A: 1099.5 ± 141.7 g/day

Q: And the Live weight ([1]; W 2, mean ± SD)?
A: 54.0 ± 3.3 kg

Q: What about the “Feed conversion ratio (FCR)” value ([1]; W 2-W 6) of the same substance?
A: 1.67

Q: What about the Average daily gain ([1]; W 2-W 6, mean ± SD) of the same substance?
A: 954.9 ± 176.8 g/day

Q: What about the Live weight ([1]; W 6, mean ± SD) of the same substance?
A: 80.7 ± 7.1 kg

Q: And the “Feed conversion ratio (FCR)” value ([1]; W 6-W 10)?
A: 2.51

Q: What about the Average daily gain ([1]; W 6-W 10, mean ± SD) of the same substance?
A: 1267.9 ± 202.2 g/day

Q: And the “Feed conversion ratio (FCR)” value ([1]; W 6-W 12)?
A: 2.76

Q: What about the Live weight ([1]; W 10, mean ± SD) of the same substance?
A: 116.2 ± 11.0 kg

Q: And the “Feed conversion ratio (FCR)” value ([1]; W 10-W 12)?
A: 3.44

Q: And the Average daily gain ([1]; W 10-W 12, mean ± SD)?
A: 1484.6 ± 260.7 g/day

Q: What about the Live weight ([1]; W 12, mean ± SD) of the same substance?
A: 136.8 ± 12.7 kg

Q: And the “Average feed intake, CMR” value ([1]; calf milk replacer, 12 weeks trial)?
A: 42.3 kg

Q: What about the “Average feed intake, Concentrates” value ([1]; concentrates, 12 weeks trial, mean ± SD) of the same substance?
A: 131.6 ± 6.2 kg

Q: And the “Average feed intake, Corn silage” value ([1]; corn silage, mean ± SD)?
A: 14.8 ± 1.3 kg

Q: What about the “Average feed intake, Straw” value ([1]; straw, 12 weeks trial, mean ± SD) of the same substance?
A: 16.0 ± 0.8 kg

Q: What about the “Significant change in counts per million (cpm) of bacteria species (score)” value (“Significant change in counts per million” for short) [2] of the same substance?
A: 1.35

Q: What about the “Significant change in counts per million” value [3] of the same substance?
A: 1.65

Q: And the “Significant change in counts per million” value [4]?
A: 1.35

Q: And the “Significant change in counts per million” value [5]?
A: −1.68

Q: What about the “Significant change in counts per million” value [6] of the same substance?
A: −1.56

Q: And the “Significant change in counts per million” value [7]?
A: −1.44

Q: And the incidence of diarrhea [8]?
A: 0%
